Laboratory results published in patent US5547962A, “5-amino-8-methyl-7-pyrrolidinylquinoline-3-carboxylic acid derivative” (priority 1993, dated 1996).
In brackets after ≈: the same amount, converted by molar mass. Read-outs that look alike come from different tables or passages of the source.

Experiments:
CHL cells = experiment: Chromosomal aberration test with a Chinese hamster lung cell line (CHL); assay type: cell-based; conditions: for Chromosomal aberration: CHL cells, 3 μg/ml
Method: The chromosomal aberration test was conducted with a Chinese hamster lung cell line (CHL). 2-(2-Furyl)-3-(5-nitro-2-furyl)acrylamide was used as a positive control. Cells treated with the test compounds were cultured for 6 h at 37° C. in 5% CO2 -humidified air. Following the 6 h treatment the cells were washed. Fresh medium was added to the washed cells and they were cultured for a further 18 h. Colcemide was added to the cultures 2 h before the fixation of chromosome preparation, in order to collect metaphase cells.

Male Hartley guinea pigs = assay type: in vivo; conditions: 10 mg/kg i.v.; for phototoxicity, in words: UVA; for Phototoxicity: number of animals with erythemas/number of animals tested: UVA 90 minutes, 24 h after irradiation
Method: Male Hartley guinea pigs were intravenously administered test compounds at a dose of 10 mg/kg, and immediately exposed to UVA on their backs for 90 minutes.

E. faecalis HPC948 = experiment: Antibacterial activity, MIC by agar dilution; assay type: cell-based; conditions: Enterococcus faecalis, clinically isolated strain, gram +
Excerpt: (§1) The strains employed were as follows:
(§2) Enterococcus faecalis (E. faecalis)

E. faecalis HPC984 = experiment: Antibacterial activity, MIC by agar dilution; assay type: cell-based; conditions: Enterococcus faecalis, clinically isolated strain, gram +
Excerpt: as §1, §2

E. faecalis HPC975 = experiment: Antibacterial activity, MIC by agar dilution; assay type: cell-based; conditions: Enterococcus faecalis, clinically isolated strain, gram +
Excerpt: as §1, §2

A. calcoaceticus HNR939 = experiment: Antibacterial activity, MIC by agar dilution; assay type: cell-based; conditions: Acinetobacter calcoaceticus, clinically isolated strain, gram -
Excerpt: as §1
(§3) Acinetobacter calcoaceticus (A. calcoaceticus)

A. calcoaceticus HNR916 = experiment: Antibacterial activity, MIC by agar dilution; assay type: cell-based; conditions: Acinetobacter calcoaceticus, clinically isolated strain, gram -
Excerpt: as §1, §3

A. calcoaceticus HNR904 = experiment: Antibacterial activity, MIC by agar dilution; assay type: cell-based; conditions: Acinetobacter calcoaceticus, clinically isolated strain, gram -
Excerpt: as §1, §3

E. coli NIHJ JC-2 = experiment: Antibacterial activity, MIC by agar dilution; assay type: cell-based; conditions: Escherichia coli, NIHJJC2; laboratory standard strain, gram -
Excerpt: as §1
Escherichia coli (E. coli)

K. pneumoniae PCI-602 = experiment: Antibacterial activity, MIC by agar dilution; assay type: cell-based; conditions: Klebsiella pneumoniae, PCI602; laboratory standard strain, gram -
Excerpt: as §1
(§4) Klebsiella pneumoniae (K. pneumoniae)

K. pneumoniae HNR828 = experiment: Antibacterial activity, MIC by agar dilution; assay type: cell-based; conditions: Klebsiella pneumoniae, clinically isolated strain, gram -
Excerpt: as §1, §4

K. pneumoniae HNR869 = experiment: Antibacterial activity, MIC by agar dilution; assay type: cell-based; conditions: Klebsiella pneumoniae, clinically isolated strain, gram -
Excerpt: as §1, §4

K. pneumoniae HNR858 = experiment: Antibacterial activity, MIC by agar dilution; assay type: cell-based; conditions: Klebsiella pneumoniae, clinically isolated strain, gram -
Excerpt: as §1, §4

S. aureus HPC292 = experiment: Antibacterial activity, MIC by agar dilution; assay type: cell-based; conditions: Staphylococcus aureus, clinically isolated strain, gram +
Excerpt: as §1
(§5) Staphylococcus aureus (S. aureus)

S. aureus HPC527 = experiment: Antibacterial activity, MIC by agar dilution; assay type: cell-based; conditions: Staphylococcus aureus, clinically isolated strain, gram +
Excerpt: as §1, §5

S. aureus FDA 209P JC-1 = experiment: Antibacterial activity, MIC by agar dilution; assay type: cell-based; conditions: Staphylococcus aureus, FDA209P; laboratory standard strain, gram +
Excerpt: as §1, §5

S. aureus HPC308 = experiment: Antibacterial activity, MIC by agar dilution; assay type: cell-based; conditions: Staphylococcus aureus, clinically isolated strain, gram +
Excerpt: as §1, §5

S. marcescens HNR1767 = experiment: Antibacterial activity, MIC by agar dilution; assay type: cell-based; conditions: Serratia marcescens, clinically isolated strain, gram -
Excerpt: as §1
(§6) Serratia marcescens (S. marcescens)

S. marcescens IAM 1184 = experiment: Antibacterial activity, MIC by agar dilution; assay type: cell-based; conditions: Serratia marcescens, IAM1184; laboratory standard strain, gram -
Excerpt: as §1, §6

S. marcescens HNR1544 = experiment: Antibacterial activity, MIC by agar dilution; assay type: cell-based; conditions: Serratia marcescens, clinically isolated strain, gram -
Excerpt: as §1, §6

S. marcescens HNR1792 = experiment: Antibacterial activity, MIC by agar dilution; assay type: cell-based; conditions: Serratia marcescens, clinically isolated strain, gram -
Excerpt: as §1, §6

E. cloacae 963 = experiment: Antibacterial activity, MIC by agar dilution; assay type: cell-based; conditions: Enterobacter cloacae, laboratory standard strain, gram -
Excerpt: as §1
(§7) Enterobacter cloacae (E. cloacae)

E. cloacae HNR1941 = experiment: Antibacterial activity, MIC by agar dilution; assay type: cell-based; conditions: Enterobacter cloacae, clinically isolated strain, gram -
Excerpt: as §1, §7

E. cloacae HNR1946 = experiment: Antibacterial activity, MIC by agar dilution; assay type: cell-based; conditions: Enterobacter cloacae, clinically isolated strain, gram -
Excerpt: as §1, §7

E. cloacae HNR1939 = experiment: Antibacterial activity, MIC by agar dilution; assay type: cell-based; conditions: Enterobacter cloacae, clinically isolated strain, gram -
Excerpt: as §1, §7

male ICR mice = experiment: Convulsions, intraperitoneal (i.p.) administration with fenbufen; conditions: 100 mg/kg i.p., fenbufen 100 mg/kg orally
Method: Thirty minutes later, they were injected intraperitoneally with the test compounds at a dose of 100 mg/kg. Thereafter, the onset of convulsions was recorded.

Row | SMILES | toxicity (chromosomal aberration), in words (CHL cells) | phototoxicity, in words (Male Hartley guinea pigs) | MIC (E. faecalis HPC948) | MIC (E. faecalis HPC984) | MIC (E. faecalis HPC975) | MIC (A. calcoaceticus HNR939) | MIC (A. calcoaceticus HNR916) | MIC (A. calcoaceticus HNR904) | MIC (E. coli NIHJ JC-2) | MIC (K. pneumoniae PCI-602) | MIC (K. pneumoniae HNR828) | MIC (K. pneumoniae HNR869) | MIC (K. pneumoniae HNR858) | MIC (S. aureus HPC292) | MIC (S. aureus HPC527) | MIC (S. aureus FDA 209P JC-1) | MIC (S. aureus HPC308) | MIC (S. marcescens HNR1767) | MIC (S. marcescens IAM 1184) | Phototoxicity: number of animals with erythemas/number of animals tested (Male Hartley guinea pigs) | other results
1 | Nc1c(F)c(N2CC[C@H](N)C2)cc2c1c(=O)c(C(=O)O)cn2C1CC1 [Reference Compound E, 5-amino-7-((S)-3-amino-1-pyrrolidinyl)-1-cyclopropyl-6-fluoro-1,4-dihydro-4-oxoquinoline-3-carboxylic acid] | observed | no phototoxicity |  |  |  |  |  |  |  |  |  |  |  |  |  |  |  |  |  |  | death of guinea pigs (Male Hartley guinea pigs; phototoxicity test): death of two guinea pigs out of five
2 | Cc1c(N2CCC(C)(N)C2)c(F)c(N)c2c(=O)c(C(=O)O)cn(C3CC3)c12 (centres unmarked) [Example 18, 5-Amino-7-(3-amino-3-methyl-1-pyrrolidinyl)-1-cyclopropyl-6-fluoro-1,4-dihydro-8-methyl-4-oxoquinoline-3-carboxylic acid] |  |  | 0.78 µg/mL | 0.2 µg/mL | 3.13 µg/mL | 0.78 µg/mL (≈ 2.08 µM) | 0.05 µg/mL (≈ 0.134 µM) | 12.5 µg/mL (≈ 33.4 µM) | 0.025 µg/mL (≈ 0.0668 µM) | 0.006 µg/mL (≈ 0.016 µM) | 6.25 µg/mL (≈ 16.7 µM) | 3.13 µg/mL (≈ 8.36 µM) | 0.39 µg/mL (≈ 1.04 µM) | 6.25 µg/mL | 0.05 µg/mL | 0.025 µg/mL | 0.78 µg/mL | 25 µg/mL (≈ 66.8 µM) | 0.2 µg/mL (≈ 0.534 µM) |  | MIC (S. marcescens HNR1544): 0.1 µg/mL (≈ 0.267 µM); MIC (S. marcescens HNR1792): 3.13 µg/mL (≈ 8.36 µM); MIC (E. cloacae 963): 0.05 µg/mL (≈ 0.134 µM); MIC (E. cloacae HNR1941): 12.5 µg/mL (≈ 33.4 µM); MIC (E. cloacae HNR1946): 0.39 µg/mL (≈ 1.04 µM); MIC (E. cloacae HNR1939): 0.39 µg/mL (≈ 1.04 µM)
3 | Cl.Nc1c(F)c(N2C[C@@H](N)C3(CC3)C2)cc2c1c(=O)c(C(=O)O)cn2C1CC1 [Reference Compound B, 5-amino-7-((S)-7-amino-5-azaspiro[2.4]hept-5-yl)-1-cyclopropyl-6-fluoro-1,4-dihydro-4-oxoquinoline-3-carboxylic acid hydrochloride] |  | observed |  |  |  |  |  |  |  |  |  |  |  |  |  |  |  |  |  | 3/5 | Chromosomal aberration (CHL cells; Table 1): + (10-20%); Chromosomal aberration (CHL cells; Table 2): + (10-20%); Chromosomal aberration (CHL cells; Table 3): + (10-20%); Chromosomal aberration (CHL cells; Table 7): + (10-20%); toxicity (chromosomal aberration), in words (CHL cells; comparison to Tables 7 and 8): observed; death of CHL cells (CHL cells; treatment with 100 μg/ml): all cells died; Convulsions i.p.: number of animals with convulsions/number of animals tested (male ICR mice): 0/6
4 | Cc1c(N2CC[C@H](N)C2)c(F)cc2c(=O)c(C(=O)O)cn(C3CC3)c12 [Reference Compound F, 7-((S)-3-amino-1-pyrrolidinyl)-1-cyclopropyl-6-fluoro-1,4-dihydro-8-methyl-4-oxoquinoline-3-carboxylic acid] | observed | observed |  |  |  |  |  |  |  |  |  |  |  |  |  |  |  |  |  | 4/5 | 
5 | Cc1c(N2C[C@@H](N)[C@@H](C)C2)c(F)c(N)c2c(=O)c(C(=O)O)cn(C3CC3)c12 (relative stereo) [Example 14, 5-Amino-7-(cis-3-amino-4-methyl-1-pyrrolidinyl)-1-cyclopropyl-6-fluoro-1,4-dihydro-8-methyl-4-oxoquinoline-3-carboxylic acid] |  |  | 0.39 µg/mL | 0.2 µg/mL | 1.56 µg/mL | 0.2 µg/mL (≈ 0.534 µM) | 0.025 µg/mL (≈ 0.0668 µM) | 3.13 µg/mL (≈ 8.36 µM) | 0.012 µg/mL (≈ 0.032 µM) | 0.006 µg/mL (≈ 0.016 µM) | 3.13 µg/mL (≈ 8.36 µM) | 1.56 µg/mL (≈ 4.17 µM) | 0.2 µg/mL (≈ 0.534 µM) | 1.56 µg/mL | 0.012 µg/mL | 0.012 µg/mL | 0.39 µg/mL | 6.25 µg/mL (≈ 16.7 µM) | 0.2 µg/mL (≈ 0.534 µM) | 0/5 | MIC (S. marcescens HNR1544): 0.05 µg/mL (≈ 0.134 µM); MIC (S. marcescens HNR1792): 3.13 µg/mL (≈ 8.36 µM); MIC (E. cloacae 963): 0.05 µg/mL (≈ 0.134 µM); MIC (E. cloacae HNR1941): 6.25 µg/mL (≈ 16.7 µM); MIC (E. cloacae HNR1946): 0.2 µg/mL (≈ 0.534 µM); MIC (E. cloacae HNR1939): 0.2 µg/mL (≈ 0.534 µM)
